Experimental findings from ChEMBL document CHEMBL1128663, “Wiedendiol-A and -B, cholesteryl ester transfer protein inhibitors from the marine sponge Xestospongia wiedenmayeri” (Bioorg Med Chem Lett, 1995) are described below.

The target in the first assay is T1, Cholesteryl ester transfer protein (Homo sapiens, UniProt P11597).
T1 sequence (P11597 whole entry): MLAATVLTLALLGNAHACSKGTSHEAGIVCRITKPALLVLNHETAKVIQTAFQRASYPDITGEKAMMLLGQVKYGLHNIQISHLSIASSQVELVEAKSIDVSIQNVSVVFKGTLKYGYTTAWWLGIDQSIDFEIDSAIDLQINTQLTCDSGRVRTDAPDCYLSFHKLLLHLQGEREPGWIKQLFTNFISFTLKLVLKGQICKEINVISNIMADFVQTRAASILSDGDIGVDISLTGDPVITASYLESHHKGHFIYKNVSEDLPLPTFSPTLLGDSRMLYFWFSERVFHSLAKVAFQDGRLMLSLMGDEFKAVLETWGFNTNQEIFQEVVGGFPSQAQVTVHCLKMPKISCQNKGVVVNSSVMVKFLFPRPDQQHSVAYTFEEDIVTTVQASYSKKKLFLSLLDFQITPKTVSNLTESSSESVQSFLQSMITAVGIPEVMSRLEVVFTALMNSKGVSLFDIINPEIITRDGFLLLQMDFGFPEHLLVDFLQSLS
Put plainly: Compound was tested for CETP inhibition by a precipitation method to separate lipoproteins after incubation of radiolabeled HDL with LDL and CETP.
For the compound `COc1ccc(O)c(O)c1/C=C1\[C@@H](C)CCC2C(C)(C)CCC[C@]12C` (some centres not stated), the 50% inhibitory concentration (IC50) (commonly the concentration at which inhibition is half-maximal) amounted to 0.6 µM. Same read-out and setting: with `COc1ccc(O)c(O)c1CC1=C(C)CCC2C(C)(C)CCC[C@]12C` (some centres not stated) the figure was 1 µM.

A further assay deals with T1, Cholesteryl ester transfer protein. Put plainly: Compound was tested for Cholesteryl ester transfer protein (CETP) inhibition by CETP-SPA assay.
Take `CC1(C)CCC[C@]2(C)C3C=C4C(=CC(=O)C(O)=C4Cl)OC3CC[C@@]12C` (some centres not stated) [CHOLOROPUUPEHENONE]: 0.3 µM corresponded to half-maximal inhibition (IC50). The compound `COc1ccc(O)c(O)c1/C=C1\[C@@H](C)CCC2C(C)(C)CCC[C@]12C` (some centres not stated) returned a concentration for half-maximal inhibition (IC50) of 5 µM. Consider `CC1(C)CCC[C@]2(C)[C@H]3C=C4C=C(O)C(=O)C=C4O[C@@]3(C)CC[C@@H]12` [PUUPEHENONE], for which the IC50 is 6 µM. For `C=C1CCC[C@H]2[C@](C)(CC3=C(O)C(=O)C=C(OC)C3=O)[C@@H](C)CC[C@]12C` [ILIMAQUINONE], the midpoint of inhibition, the IC50, lay at 100 µM.

In turn, `COc1ccc(O)c2c1C[C@]1(C)[C@@H](C)CCC3C(C)(C)CCC[C@]31O2` (some centres not stated) gave an IC50 of 46 µM.

In turn, `C[C@H]1CCC2C(C)(C)CCC[C@]23Oc2ccc(O)cc2C[C@]13C` (some centres not stated) displayed a concentration for half-maximal inhibition (IC50) of 22 µM. Still for that read-out and setting: with `CC1=CC[C@H]2C(C)(C)CCC[C@]2(C)[C@H]1C[C@H](OS(=O)(=O)[O-])[C@H](C)CCCc1ccoc1.C[N+](C)=C(N)N` [SULFIRICIN] the figure was > 190 µM. Compound `C[C@]12CC(=O)[C@@H](O)[C@](C)(CO)[C@@H]1CC[C@@]1(C)c3cocc3CC[C@H]21` [SPONGIADIOL] registered a 50% inhibitory concentration (IC50) of 196 µM. The same measure, in the same setting: with `COc1ccc(O)c(O)c1CC1=C(C)CCC2C(C)(C)CCC[C@]12C` (some centres not stated) the figure was 5 µM. Compound `CC1=CCC[C@H]2[C@](C)(Cc3cc(O)ccc3O)[C@@H](C)CC[C@]12C` [AVAROL] showed an IC50 of 25 µM.
